Data published in US20240142676A1, “COMPOUND, COMPOSITION, CURED PRODUCT, OPTICALLY ANISOTROPIC BODY, OPTICAL ELEMENT, AND LIGHT GUIDE ELEMENT” (FUJIFILM Corporation, priority 2021, published 2024).

Legend:
Assay type in all cases: physicochemical
[1] = Evaluation of liquid crystallinity (hot stage, polarization microscope); design: key: A case of having liquid crystallinity was evaluated as A; a case of having no liquid crystallinity was evaluated as B; details: heated on a hot stage, observed with a polarization microscope
Method: The respective compounds (the compounds A-1 to A-6 and the compounds B-1 and B-2) were heated on a hot stage and observed with a polarization microscope, and the phase transition temperature was measured to evaluate the presence or absence of the liquid crystallinity. A case of having liquid crystallinity was evaluated as A, and a case of having no liquid crystallinity was evaluated as B. The results are shown in Table 1.
Since B-1 has melting points of 200° C. or higher and undergo a polymerization reaction during heating, liquid crystallinity could not be evaluated.

[2] = Measurement of Δn (refractive index anisotropy), wedge-shaped liquid crystal cell; details: wavelength 550 nm, 30° C. or lower limit temperature of nematic phase+0° C. to 10° C.; extrapolated from 1/2 mixture with L-1-1 where needed
Method: The Δn of each of the compounds (the compounds A-1 to A-6 and the compounds B-1 and B-2), which are the compounds to be measured, was measured by a method using a wedge-shaped liquid crystal cell described on page 202 in the Liquid crystal handbook (edited by the liquid crystal handbook editorial board, published by Maruzen Co., Ltd., 2000). Δn was defined as a measured value at a wavelength of 550 nm at 30° C. or the lower limit temperature of the nematic phase+0° C. to 10° C. In a case of a compound which is liable to crystallize or a compound having no liquid crystallinity, evaluation was carried out using a mixture thereof with the other liquid crystal compound, and Δn was estimated from the extrapolated value of the measured value thereof.
The following L-1-1 was used as the other liquid crystal compound. As the above mixture, a mixture obtained by mixing at a ratio of the compound to be measured/the L-1-1=1/2 (in terms of mass ratio) was used.
A case where Δn was 0.35 or more was evaluated as A, a case where Δn was 0.30 or more and less than 0.35 was evaluated as B, and a case where Δn was less than 0.30 was evaluated as C.

[3] = Light resistance evaluation of optically anisotropic layer (Super Xenon Weather Meter); details: rate of change in Re (550 nm) of layer with 25 parts compound/75 parts L-1; 5 million lx, 50 hours, 63° C., 50% RH, oxygen-blocking
Method: As shown below, the light resistance of the optically anisotropic layer produced using the composition containing each of the compounds A-1 to A-6 and the compounds B-1 and B-2 was evaluated.
A coating liquid having the following composition was prepared and applied by spin-coating, onto a rubbing-treated glass attached with an alignment film. Each composition was irradiated with ultraviolet rays of 300 mJ/cm^2 through a filter that cuts light having a wavelength of 350 nm or less on a hot plate which had been heated to a temperature at which a nematic phase is shown, whereby an optically anisotropic layer was produced.
The polymerizable liquid crystal compound L-1 is a mixture obtained by mixing at a ratio of the following L-1-1/L-1-2/L-1-3=84/14/2 (in terms of mass ratio).
The produced optically anisotropic layers for a light resistance test were irradiated with light using a Super Xenon Weather Meter SX75 manufactured by Suga Test Instruments Co., Ltd. Using KU-1000100 manufactured by King Seisakusho Co., Ltd. as a UV cut filter, a light resistance test was carried out by irradiation with 5 million lx of light for 50 hours under an oxygen-blocking condition. The temperature of the specimen to be tested (the temperature inside the test device) was set to 63° C. The relative humidity in the test device was 50% RH.
The Re of the optically anisotropic layer before and after the light resistance test was measured, the light resistance in a case where the rate of change in Re described below was less than 10% was evaluated as A, and the light resistance in a case where the rate of change in Re was 10% or more was evaluated as B. The smaller the rate of change in Re, the more excellent the light resistance.
Rate of change in Re (%)=[100×{|(Re after test)−(Re before test)|}/(Re before test)]
Re was measured with Axoscan manufactured by Axometrics Inc. at a wavelength of 550 nm, and the measurement temperature was set to room temperature.

[4] = Evaluation of solubility in methyl ethyl ketone; details: precipitation concentration in methyl ethyl ketone at room temperature (25° C.)
Method: The solubility of each of the compounds (the compounds A-1 to A-6 and the compounds B-1 and B-2) in methyl ethyl ketone was evaluated.

Row | Structure (SMILES) | Liquid crystallinity [1] | Δn [2] | Light resistance [3] | Solubility [4]
1 | C=CC(=O)OCCc1ccc(C#Cc2ccc(-c3ccc(C#Cc4ccc(CCOC(=O)C=C)cc4)cc3C)c(C)c2)cc1 [Compound A-1] | A | B (a case where Δn was 0.30 or more and less than 0.35 was evaluated as B) | A (the light resistance in a case where the rate of change in Re described below was less than 10% was evaluated as A) | A (the solubility in a case where the precipitation concentration was 10% by mass or more was evaluated as A)
2 | C=CC(=O)OCCSc1ccc(C#Cc2ccc(-c3ccc(C#Cc4ccc(SCCOC(=O)C=C)cc4)cc3C)c(C)c2)cc1 [Compound A-2] | A | A (A case where Δn was 0.35 or more was evaluated as A) | A (the light resistance in a case where the rate of change in Re described below was less than 10% was evaluated as A) | A (the solubility in a case where the precipitation concentration was 10% by mass or more was evaluated as A)
3 | C=CC(=O)OCCCCOc1ccc(C#Cc2ccc(-c3ccc(C#Cc4ccc(OCCCCOC(=O)C=C)cc4)cc3C)c(C)c2)cc1 [Compound A-3] | A | B (a case where Δn was 0.30 or more and less than 0.35 was evaluated as B) | A (the light resistance in a case where the rate of change in Re described below was less than 10% was evaluated as A) | A (the solubility in a case where the precipitation concentration was 10% by mass or more was evaluated as A)
4 | C=CC(=O)OCCc1ccc(C#Cc2cnc(-c3ncc(C#Cc4ccc(CCOC(=O)C=C)cc4)cc3C)c(C)c2)cc1 [Compound A-6] | A | B (a case where Δn was 0.30 or more and less than 0.35 was evaluated as B) | A (the light resistance in a case where the rate of change in Re described below was less than 10% was evaluated as A) | A (the solubility in a case where the precipitation concentration was 10% by mass or more was evaluated as A)
